According to paper PMC7749613 (Journal of Cachexia, Sarcopenia and Muscle, 2020):
Bridge positions count the residues as written; N and C are the ends. Square brackets hold non-standard residues; d marks the D form. Peptide text beside a SMILES is read from it. d2Nal = N[C@H](Cc1ccc2ccccc2c1)C(=O)O; Nle = CCCC[C@H](N)C(=O)O

What was measured:
BCRP (ABCG2) = molecular target: T1, BCRP (ABCG2) (Homo sapiens, UniProt Q9UNQ0); assay: Transepithelial transport of rosuvastatin (±TCMCB07) in MDCKII/BCRP cells; type: in vitro ADME
T1 construct: host or cells: MDCKII
T1 sequence (Q9UNQ0 1-655): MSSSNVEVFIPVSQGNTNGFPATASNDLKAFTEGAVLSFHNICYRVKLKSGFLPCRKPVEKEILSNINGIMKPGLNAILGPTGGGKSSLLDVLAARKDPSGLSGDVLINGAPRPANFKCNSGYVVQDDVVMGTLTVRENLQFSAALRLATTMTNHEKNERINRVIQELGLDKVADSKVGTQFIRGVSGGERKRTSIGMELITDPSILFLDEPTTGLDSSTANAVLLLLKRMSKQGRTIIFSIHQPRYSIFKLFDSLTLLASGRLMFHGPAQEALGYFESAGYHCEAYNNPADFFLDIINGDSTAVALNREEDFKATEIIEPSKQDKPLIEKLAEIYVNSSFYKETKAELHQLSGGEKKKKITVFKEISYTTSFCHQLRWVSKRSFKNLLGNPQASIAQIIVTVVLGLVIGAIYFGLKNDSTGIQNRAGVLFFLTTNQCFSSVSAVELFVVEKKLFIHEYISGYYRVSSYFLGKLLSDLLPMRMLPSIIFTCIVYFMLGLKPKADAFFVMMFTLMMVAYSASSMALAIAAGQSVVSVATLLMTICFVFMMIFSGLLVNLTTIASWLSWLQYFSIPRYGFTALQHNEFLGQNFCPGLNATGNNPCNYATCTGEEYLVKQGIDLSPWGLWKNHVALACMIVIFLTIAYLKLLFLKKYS
Method: Cells were then washed three times, each with 0.5 mL pre‐warmed HBSS buffer. […] The cells were then incubated for various times up to 60 min. […] At the designated times, 15 μL of apical buffer and 50 μL of basolateral buffer were sampled. Once all the samples were collected, 0.5 mL of ice‐cold HBSS buffer was added to the well to stop transport after which the cells were rinsed three times with 0.5 mL of ice‐cold HBSS. The filters with monolayers were then detached from the chamber and placed in a scintillation vial, and the cells were lysed with 0.33 mL hyamine hydroxide.
The permeability of digoxin and rosuvastatin (prototypical substrates for MDR1 and BCRP, respectively) was determined by the following ^18 : (4) Papp=CR·VR/CD^o·A·∆Δt, where Papp is the apparent permeability, CR is the concentration of substrate in the receiver chamber, CD^o is the concentration of substrate in the donor chamber at time zero, VR is the volume of buffer in the receiver chamber, A is the surface area of the insert filter membrane, and ∆t is the time over which permeability is measured.
A similar analysis can be performed for rosuvastatin by substituting ERRos for ERDig and ERRos+T for ERDig+T in Eqn 6.

MATE2‐K = MATE2‐K (Homo sapiens, UniProt Q86VL8); type: in vitro ADME
Method: (§1) However, for these studies, a different incubation buffer was used (145 mM NaCl, 3 mM KCl, 1 mM CaCl2, 0.5 mM MgCl2, 5 mM glucose, and 5 mM HEPES, pH 7.4). ^13 Moreover, intracellular acidification was achieved by preincubating the cells in buffer containing 30 mM ammonium chloride for 20 min at 37°C. […] Radioactivity and protein measurements were performed as described previously.

MATE1 = molecular target: T2, MATE1 (Homo sapiens, UniProt Q96FL8); type: in vitro ADME
T2 sequence (Q96FL8 1-570): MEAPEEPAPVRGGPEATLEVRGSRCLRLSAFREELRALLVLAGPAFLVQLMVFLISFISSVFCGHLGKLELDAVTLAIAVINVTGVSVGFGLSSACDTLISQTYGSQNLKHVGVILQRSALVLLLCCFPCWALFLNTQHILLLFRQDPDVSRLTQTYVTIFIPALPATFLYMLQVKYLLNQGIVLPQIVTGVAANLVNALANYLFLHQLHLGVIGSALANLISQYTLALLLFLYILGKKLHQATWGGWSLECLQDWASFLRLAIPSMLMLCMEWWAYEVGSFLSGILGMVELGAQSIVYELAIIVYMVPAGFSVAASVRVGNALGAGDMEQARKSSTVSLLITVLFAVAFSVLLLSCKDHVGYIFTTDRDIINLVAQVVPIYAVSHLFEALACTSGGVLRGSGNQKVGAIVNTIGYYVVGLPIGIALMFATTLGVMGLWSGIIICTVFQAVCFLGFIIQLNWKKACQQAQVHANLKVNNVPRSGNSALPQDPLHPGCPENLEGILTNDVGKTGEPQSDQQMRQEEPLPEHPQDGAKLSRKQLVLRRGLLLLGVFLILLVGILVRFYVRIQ
Method: as §1

OATP1A2 [1] = molecular target: T3, OATP1A2 (Homo sapiens, UniProt P46721); assay: Inhibition of prototypical substrate (E3S) uptake by TCMCB07 in HEK293/OATP1A2 cells; type: in vitro ADME; parameters: host or cells: HEK293
T3 sequence (P46721 1-670): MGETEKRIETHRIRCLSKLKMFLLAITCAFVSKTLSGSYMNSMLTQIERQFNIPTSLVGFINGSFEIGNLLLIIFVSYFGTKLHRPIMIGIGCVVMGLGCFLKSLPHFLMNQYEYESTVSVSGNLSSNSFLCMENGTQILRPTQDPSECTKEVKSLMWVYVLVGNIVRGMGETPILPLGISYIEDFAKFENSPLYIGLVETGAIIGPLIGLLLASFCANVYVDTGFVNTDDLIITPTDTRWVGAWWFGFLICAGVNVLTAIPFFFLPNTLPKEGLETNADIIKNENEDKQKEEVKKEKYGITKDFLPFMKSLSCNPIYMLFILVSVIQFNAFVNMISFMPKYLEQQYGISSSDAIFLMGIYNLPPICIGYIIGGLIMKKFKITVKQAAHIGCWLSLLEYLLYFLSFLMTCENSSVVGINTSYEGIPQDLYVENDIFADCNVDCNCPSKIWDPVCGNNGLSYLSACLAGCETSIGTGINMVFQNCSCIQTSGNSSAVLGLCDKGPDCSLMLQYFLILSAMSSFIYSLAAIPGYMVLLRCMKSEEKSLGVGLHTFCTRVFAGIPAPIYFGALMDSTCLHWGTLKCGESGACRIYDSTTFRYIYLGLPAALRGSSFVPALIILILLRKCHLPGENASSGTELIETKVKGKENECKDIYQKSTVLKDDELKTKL
Method: Cells were then washed three times × 1.0 mL each with pre‐warmed Hank's Balanced Salt Solution (HBSS) buffer. A 0.5 mL aliquot of uptake buffer [HBSS plus 10 mM 4‐(2‐hydroxyethyl)‐1‐piperazineethanesulfonic acid (HEPES), pH 7.4], containing the radiolabelled prototypical substrate and mannitol, was then incubated for various times up to 60 min to determine the optimal incubation time for subsequent experiments (i.e. time of sampling during linear uptake conditions). At the designated times, 1.0 mL of ice‐cold HBSS buffer was added to stop uptake after which the cells were rinsed three times with 1.0 mL with ice‐cold HBSS. Hyamine hydroxide (0.33 mL) was then added to each well to lyse the cells. The cells were transferred into a scintillation vial and mixed with 6.0 mL of cytosine scintillation cocktail. Radioactivity of the solubilized cells was determined with a dual‐channel liquid scintillation counter (Beckman LS 6000; Beckman Coulter Inc., Fullerton, CA) and the protein quantified by a bicinchoninic acid protein assay kit (Pierce Biotechnology; Rockford, IL).
Mock and transfected cells (250 000 cells/well) were seeded onto BioCoat poly‐D‐lysine 24 well plates (Corning Inc.) and cultured for 2 days as described previously for the other OATPs. […] Radioactivity and protein measurements were then performed as described previously.

OATP1A2 [2] = molecular target: T3, OATP1A2; assay: Cellular uptake in HEK293/OATP1A2‐transfected versus mock cells
Method: Mock and transfected cells (250 000 cells/well) were seeded onto BioCoat poly‐D‐lysine 24 well plates (Corning Inc.) and cultured for 2 days as described previously for the other OATPs. […] Cells were incubated for various times over 10 min for the uptake studies. Radioactivity and protein measurements were then performed as described previously.
Cellular uptake and transepithelial transport were calculated as described previously by our laboratory. ^16 , ^17 , ^18 , ^19 [^3H]mannitol or [^14C]mannitol was used to correct the uptake of [^14C]substrate or [^3H]substrate, respectively, due to filter binding and extracellular content, as well as the transepithelial transport of substrate due to paracellular flux.
Uptake kinetics in mock cells was evaluated by a linear term: (3) v=Slope·C+Yint, where Slope is the non‐saturable rate constant and Yint is the y‐intercept of the line.

[3] = in the presence of 500 μM TCMCB07, increased by

MATE2‐K, sequence (Q86VL8 1-566 isoform Q86VL8-3): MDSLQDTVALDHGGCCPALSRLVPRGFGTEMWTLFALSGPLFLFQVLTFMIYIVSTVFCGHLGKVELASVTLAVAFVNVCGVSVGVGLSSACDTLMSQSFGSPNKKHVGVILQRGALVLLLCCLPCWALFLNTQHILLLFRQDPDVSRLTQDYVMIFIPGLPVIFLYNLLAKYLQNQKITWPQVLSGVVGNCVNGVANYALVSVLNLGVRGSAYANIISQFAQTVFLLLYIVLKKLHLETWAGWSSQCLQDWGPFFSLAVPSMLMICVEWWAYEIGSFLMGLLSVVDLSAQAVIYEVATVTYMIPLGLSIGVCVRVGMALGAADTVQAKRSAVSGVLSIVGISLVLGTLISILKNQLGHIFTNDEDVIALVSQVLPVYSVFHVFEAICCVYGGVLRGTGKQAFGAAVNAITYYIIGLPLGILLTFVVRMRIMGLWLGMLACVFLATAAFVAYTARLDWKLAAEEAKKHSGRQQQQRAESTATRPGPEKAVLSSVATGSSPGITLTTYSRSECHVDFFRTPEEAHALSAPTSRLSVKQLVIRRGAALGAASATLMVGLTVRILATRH

Structure (SMILES): CCCC[C@H](NC(C)=O)C(=O)N[C@H]1CC(=O)NCCCC[C@@H](C(=O)N[C@@H](C(=O)N2CCC[C@@H]2C(N)=O)C(C)C)NC(=O)[C@H](Cc2c[nH]c3ccccc23)NC(=O)[C@H](CCCN=C(N)N)NC(=O)[C@@H](Cc2ccc3ccccc3c2)NC(=O)[C@@H]2CCCN2C1=O [TCMCB07, Ac‐Nle‐c[Asp‐Pro‐dNal2′‐Arg‐Trp‐Lys]‐dVal‐dPro‐NH2] (Ac-[Nle]DP[d2Nal]RWK[dV][dP]-NH2; lactam 2-7)
- % Change ER of rosuvastatin, 100·(1−ERRos+T/ERRos) (BCRP (ABCG2); MDCKII/BCRP, 500 μM TCMCB07, negative = efflux ratio increased): −32%
- increase of BCRP‐mediated permeability of rosuvastatin, A to B direction (BCRP (ABCG2); [3]): 5%
- increase of BCRP‐mediated permeability of rosuvastatin, B to A direction (BCRP (ABCG2); [3]): 37%
- effect on BCRP‐mediated permeability of prototypical substrate (BCRP (ABCG2); transfected cells, 500 μM TCMCB07): did not affect
- IC50 (MATE2‐K): 20.7 ± 2.1 µM
- IC50 (MATE1): 8.7 ± 0.4 µM
- IC50 (OATP1A2 [1]): 24 ± 2.8 µM
- saturable uptake component (V max/K m) as share of total uptake (V max/K m + K d) (OATP1A2 [2]; OATP1A2‐transfected cells, at low concentrations (<< K m)): over 90%
- uptake of TCMCB07 in OATP1A2 cells as compared with mock cells (OATP1A2 [2]; at 5 min): 3–4 times greater
